Experimental data published in patent publication US10035814B2, “Guanine analogs as telomerase substrates and telomere length affectors” (Geron Corporation, priority 2011, dated 2018).
“And” between values parts separate entries of the source, which are not always exact repeats. Equal entries are not always repeated.

What was measured:
telomerase [1] = target: T1, telomerase (Homo sapiens (Human), UniProt O14746); assay: Primer extension assay for telomerase activity; format: biochemical; conditions: for IC50: purified telomerase, dGTP 50 μM
T1 sequence (O14746 whole entry): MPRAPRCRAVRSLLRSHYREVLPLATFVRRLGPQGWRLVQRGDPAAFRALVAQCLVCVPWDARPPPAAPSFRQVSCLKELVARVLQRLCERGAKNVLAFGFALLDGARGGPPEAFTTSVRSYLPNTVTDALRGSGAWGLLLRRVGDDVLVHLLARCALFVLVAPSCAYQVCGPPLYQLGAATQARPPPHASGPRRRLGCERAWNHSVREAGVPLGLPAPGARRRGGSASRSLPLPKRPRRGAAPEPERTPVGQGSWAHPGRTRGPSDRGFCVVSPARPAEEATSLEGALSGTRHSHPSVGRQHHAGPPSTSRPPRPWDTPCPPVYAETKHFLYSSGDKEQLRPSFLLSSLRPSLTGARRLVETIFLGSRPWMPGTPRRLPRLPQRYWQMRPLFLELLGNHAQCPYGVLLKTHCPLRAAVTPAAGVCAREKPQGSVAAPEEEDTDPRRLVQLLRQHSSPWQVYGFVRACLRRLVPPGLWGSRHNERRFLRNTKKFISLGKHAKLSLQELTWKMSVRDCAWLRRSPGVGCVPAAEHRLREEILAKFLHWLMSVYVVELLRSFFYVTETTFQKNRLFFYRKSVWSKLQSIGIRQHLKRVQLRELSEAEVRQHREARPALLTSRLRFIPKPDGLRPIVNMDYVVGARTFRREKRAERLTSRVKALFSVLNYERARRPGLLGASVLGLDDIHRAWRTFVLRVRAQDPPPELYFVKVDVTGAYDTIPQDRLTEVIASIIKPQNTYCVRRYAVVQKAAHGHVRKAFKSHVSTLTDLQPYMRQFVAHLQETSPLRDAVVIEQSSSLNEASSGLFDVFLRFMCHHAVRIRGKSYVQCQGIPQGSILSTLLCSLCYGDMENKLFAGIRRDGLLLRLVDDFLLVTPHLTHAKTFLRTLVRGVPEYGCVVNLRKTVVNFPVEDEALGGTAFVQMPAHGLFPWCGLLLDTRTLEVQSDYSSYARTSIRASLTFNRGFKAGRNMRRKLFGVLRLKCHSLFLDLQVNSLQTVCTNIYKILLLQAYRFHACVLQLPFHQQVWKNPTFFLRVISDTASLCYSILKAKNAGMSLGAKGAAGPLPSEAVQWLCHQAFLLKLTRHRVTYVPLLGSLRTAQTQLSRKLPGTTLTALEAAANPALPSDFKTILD
Protocol: Purified human telomerase was incubated with d(TTAGGG)3 (SEQ ID NO: 1) and deoxy-nucleoside triphosphates for 90 minutes at 37° C. All reactions were done in the presence of 200 dTTP and 10 μM dATP (50,000 cpm/pmol a-^33P-dATP). Activity was determined by incubating affinity purified telomerase extract with 1 μM primer [d(TTAGGG)3] (SEQ ID NO: 1), 200 μM dTTP, 50 μM dGTP, 10 μM dATP, 10 μCi [α-^33P]dATP (2000-4000 Ci/mmol) in a buffer containing 50 mM (N-2-hydroxyethyl piperazine-N′-3 propanesulfonic acid)-NaOH pH 8.5, 1 mM MgCl2, 1 mM DTT, 5% glycerol, 0.5 mM EGTA and 100 mM KOAc in a final reaction volume of 40 μl. Primer extension products were analyzed on a 15% polyacrylamide gel containing 7 M urea. A characteristic telomerase ladder has multiple bands. If a compound is not a substrate then (TTAGGG)3TTA (21 nt) (SEQ ID NO: 2). If a compound is a chain terminator then (TTAGGG)3TTAG* (22 nt) (SEQ ID NO: 3).
Purified human telomerase was incubated with d(TTAGGG)3 (SEQ ID NO: 1) and deoxy-nucleoside triphosphates for 90 minutes at 37° C. All reactions were done in the presence of 200 dTTP and 10 μM dATP (50,000 cpm/pmol a-^33P-dATP). Activity was determined by incubating affinity purified telomerase extract with […] primer [d(TTAGGG)3] (SEQ ID NO: 1), […] [α-^33P]dATP (2000-4000 Ci/mmol) in a buffer containing 50 mM (N-2-hydroxyethyl piperazine-N′-3 propanesulfonic acid)-NaOH pH 8.5, 1 mM MgCl2, 1 mM DTT, 5% glycerol, 0.5 mM EGTA and 100 mM KOAc in a final reaction volume of 40 μl. Primer extension products were analyzed on a 15% polyacrylamide gel containing 7 M urea. A characteristic telomerase ladder has multiple bands. If a compound is not a substrate then (TTAGGG)3TTA (21 nt) (SEQ ID NO: 2). If a compound is a chain terminator then (TTAGGG)3TTAG* (22 nt) (SEQ ID NO: 3).

telomerase [2] = target: T1, telomerase; assay: Flash plate (Flashplate) telomerase assay; format: biochemical; conditions: affinity purified telomerase extract, 20 μM dGTP; read-out: Flashplate IC 50
Protocol: Determining IC50 for PMPGpp, (R)-PMPGpp and (S)-PMPGpp. Telomerase activity was determined using the “flash-plate” assay with concentrations of PMPGpp ranging from 0.05 μM to 50 μM.
Compound was pre-incubated with affinity purified telomerase extract, 100 nM primer [5′ biotin-d(AATCCGTCGAGCAGAGTT)] (SEQ ID NO: 4), 120 μM dTTP, 20 μM dGTP, […], in a buffer containing 50 mM Tris-Acetate (pH 8.2), 1 mM MgCl2, 1 mM DTT, 0.5 mM EGTA and 150 mM KOAc, 5.4 nM ^33P-labeled [d([…])] (SEQ ID NO: 5 (6×10^9 cpm/nmol) in a final reaction volume of 30 μl. Incubations were done for 90 min at 37° C. Following stoppage of the reaction with EDTA (10 mM), the reaction products were captured in a streptavidin coated 96 well FlashPlate. After a 2 hr capture period for the primer, the plates were washed five times (2×SSC, 0.1% SDS, 10 mM EDTA) and counted.
Compound was pre-incubated with affinity purified telomerase extract, 100 nM primer [5′ biotin-d(AATCCGTCGAGCAGAGTT)] (SEQ ID NO: 4), 120 μM dTTP, 20 μM dGTP, 10 μM dATP, in a buffer containing 50 mM Tris-Acetate (pH 8.2), 1 mM MgCl2, 1 mM DTT, 0.5 mM EGTA and 150 mM KOAc, 5.4 nM ^33P-labeled [d([…])] […]

| IC50 (telomerase [1]) | IC50 (telomerase [2]) | Primer Ext. Assay Notes: telomerase substrate / chain terminator (telomerase [1]; listed as PMPGpp) | Primer Ext. Assay Notes: telomerase substrate / chain terminator (telomerase [1]; listed as R-PMPGpp) | Structure (SMILES) |
| --- | --- | --- | --- | --- |
| 13500 nM | 14100 nM | – | – | CC(Cn1cnc2c(=O)[nH]c(N)nc21)OCP(=O)(O)OP(=O)(O)OP(=O)(O)O (single isomer, unassigned) [ID#142751, PMPG free acid, S form] |
| ~1000 nM and 1000 nM | 1000 nM | acts as a chain terminator | resulting in chain termination | CC(Cn1cnc2c(=O)[nH]c(N)nc21)OCP(=O)(O)OP(=O)(O)OP(=O)(O)O (single isomer, unassigned) [ID#142692] |
